Laboratory results as given in patent US6177438A, “Morphinan derivatives and pharmaceutical use thereof” (priority 1993, dated 2001).
Structures can show the parent of a compound that is named as a salt.

What was measured:
[1] = tested on: extracted mouse vas deferens preparation; assay: Opioid activity test using an extracted mouse vas deferens preparation (suppression of electrically induced contractions); parameters: species or system male ddy mouse; settings: electrical stimulus 0.1 Hz, 37° C.
Method in brief: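 Male ddY mouse vas deferens in Krebs-Henseleit at 37° C, 5% CO2/95% O2, field-stimulated at 0.1 Hz, 5.0 ms; isometric contractions recorded. After adding naloxone, NTI or norBNI, test compound was added cumulatively after ~20 min; Ke derived from the difference in agonist efficacies.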

[2] = molecular target: T1, κ receptor (Mus musculus, UniProt P33534); assay: Opioid activity test using an extracted mouse vas deferens preparation, Ke with norBNI; parameters: species or system male ddy mouse; settings: for Ke, norBNI: κ, norBNI added; for receptor selectivity of agonist (κ): in words
T1 construct: from tissue; host or cells: mouse (male ddy) vas deferens

[3] = tested on: acetic acid-induced writhing in ddy mice; assay: animal or person; assay type: in vivo, 5 week old ddy mice; settings: Mus musculus, sc, s.c. 15 minutes before acetic acid, read-out: ED50
Procedure: 5 week old ddy mice were used in this test. After intraperitoneal administration of 0.1 ml of 0.6% aqueous acetic acid per 10 g of body weight, the number of writhing reactions that occurred in 10 minutes starting 10 minutes after administration was evaluated for the indicator. The test drug was administered subcutaneously into the backs of the animals 15 minutes before administration of acetic acid.

[4] = Diuretic action (urine output for 5 hours after physiological saline loading in rats); assay type: in vivo, male Wistar rats; settings: for ED (200% urine output) / ED (500% urine output): Rattus norvegicus, sc, 5 hours after saline 20 ml/kg p.o.; for ED (200% urine output): dose giving urine output of 200 (non-dosed group = 100); for ED (500% urine output): dose giving urine output of 500 (non-dosed group = 100)
Method in brief: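 Male Wistar rats (7-8 weeks), water withheld 1 h, bladder emptied, drug given subcutaneously; 30 min later 20 ml/kg saline orally. Urine collected 5 h after saline loading in metabolic cages; ED200 and ED500 are doses giving urine output of 200 and 500 relative to non-dosed group at 100.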

[5] = tested on: guinea pig respiratory tract; assay: Antitussive action using the guinea pig respiratory tract stimulation method; assay type: in vivo, male Hartley guinea pigs; settings: for ED50: Cavia porcellus, sc; for No. of Animals in which Coughing was Suppressed/No. of Animals Tested: s.c.
Procedure: Evaluation of Antitussive Action Using the Guinea Pig Respiratory Tract Stimulation Method
Male Hartley guinea pigs having body weights of 330-380 g were used in this test in groups of 5 animals each. The animals were immobilized in the supine position under mild anesthesia by intraperitoneal administration of 15 mg/kg of sodium pentobarbital. An incision was made in the necks of the animals to expose the respiratory tract. A small hole was opened in the exposed respiratory tract, and stimulating hairs were inserted to a depth of roughly 3 cm and at an angle of 30 degrees to the respiratory tract through the opened hole to provide a stimulus to the inner wall of the respiratory tract. The animals were then examined for the presence of coughing. […] The test drug was administered subcutaneously, and stimuli were provided two times each 15, 30, 60 and 120 minutes after administration.

[6] = tested on: cultured nerve cells (cerebral cortex); settings: 10 mM glutamic acid, 24 hours
[7] = tested on: cultured nerve cells (cerebral cortex); assay: cells; settings: Rattus norvegicus, Cerebral cortex neuron, 24 h, read-out: ED50 (protection against glutamic acid toxicity)
[8] = tested on: nerve cells in the region of the hippocampus CA1; assay: Delayed neuronal death protective action (gerbil transient ischemia model, hippocampus CA1 nerve cell count); assay type: in vivo, gerbils; settings: s.c.; for No. of Residual Nerve Cells: 30 minutes before ischemia, 1 week after ligation; for Suppression of defluxion of brain nerve cells caused by ischemia / cerebro-neuroprotective activity (in words): gerbils
Procedure: Those compounds that provide protection from and suppress delayed neuronal death described in Example 238 are considered to be promising as preventive and therapeutic agents for ischemic brain disorders, brain nerve cell disorders and dementia, which are problems that the present invention is attempting to solve. The pharmacological activity of the compounds of the present invention was evaluated in the manner below using gerbils for the animal model.
A midline incision was made in gerbils having body weights of 50-70 g under ether anesthesia. Blood flow through the carotid arteries on both sides was interrupted to create an ischemic state by ligating the vessels for 5 minutes. The test compound was administered subcutaneously either 30 minutes or 1 hour prior to ligation ischemia, and the rectal temperature of the animals was controlled to 37±2° C. using a heating pad or heater starting 5 minutes before to 30 minutes after ligation ischemia. 1 week after ligation, 4% neutral buffered formalin was perfused from the heart throughout the body followed by extraction of the brain. After post-fixing the extracted brain in the same solution, the tissue was prepared into sections after embedding in paraffin. The sections were stained with hematoxylin and eosin stain, and the number of nerve cells in the region of the hippocampus CA1 over a width of 1 mm to the left and right was counted. The total number of nerve cells on the right and left sides was then used for evaluation.

[9] = molecular target: T2, μ receptor (Mus musculus, UniProt P42866); assay: Opioid activity test using an extracted mouse vas deferens preparation, Ke with naloxone; parameters: species or system male ddy mouse; settings: naloxone added
T2 construct: naloxone as mu antagonist (printed 'agonist')

[10] = molecular target: T3, δ receptor (Mus musculus, UniProt P32300); parameters: species or system male ddy mouse; settings: mouse vas deferens; for Ke, NTI: δ, NTI added
T3 construct: The vas deferens extracted from the animal was suspended in a Magnus tube; from tissue; host or cells: mouse (male ddy) vas deferens
T3 sequence (P32300 whole entry): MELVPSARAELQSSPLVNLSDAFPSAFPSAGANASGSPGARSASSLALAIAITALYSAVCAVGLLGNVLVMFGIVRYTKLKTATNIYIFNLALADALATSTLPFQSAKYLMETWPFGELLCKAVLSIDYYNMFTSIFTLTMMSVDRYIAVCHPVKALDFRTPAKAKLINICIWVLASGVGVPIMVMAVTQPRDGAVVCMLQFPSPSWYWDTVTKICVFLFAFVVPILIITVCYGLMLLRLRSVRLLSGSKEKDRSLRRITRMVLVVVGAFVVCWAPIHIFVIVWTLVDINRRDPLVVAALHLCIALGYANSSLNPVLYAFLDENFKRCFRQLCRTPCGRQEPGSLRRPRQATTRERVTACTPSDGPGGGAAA

T1 sequence (P33534 whole entry): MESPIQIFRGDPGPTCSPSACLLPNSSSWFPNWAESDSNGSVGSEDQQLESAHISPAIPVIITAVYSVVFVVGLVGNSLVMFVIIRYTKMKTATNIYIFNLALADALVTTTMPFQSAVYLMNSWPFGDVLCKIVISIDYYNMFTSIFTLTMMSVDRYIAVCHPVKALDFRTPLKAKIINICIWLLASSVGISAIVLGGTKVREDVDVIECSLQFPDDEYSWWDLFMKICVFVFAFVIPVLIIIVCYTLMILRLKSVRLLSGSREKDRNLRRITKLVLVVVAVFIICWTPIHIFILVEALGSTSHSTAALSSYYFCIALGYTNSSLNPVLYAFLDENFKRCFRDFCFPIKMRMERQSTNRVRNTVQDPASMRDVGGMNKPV
T2 sequence (P42866 whole entry): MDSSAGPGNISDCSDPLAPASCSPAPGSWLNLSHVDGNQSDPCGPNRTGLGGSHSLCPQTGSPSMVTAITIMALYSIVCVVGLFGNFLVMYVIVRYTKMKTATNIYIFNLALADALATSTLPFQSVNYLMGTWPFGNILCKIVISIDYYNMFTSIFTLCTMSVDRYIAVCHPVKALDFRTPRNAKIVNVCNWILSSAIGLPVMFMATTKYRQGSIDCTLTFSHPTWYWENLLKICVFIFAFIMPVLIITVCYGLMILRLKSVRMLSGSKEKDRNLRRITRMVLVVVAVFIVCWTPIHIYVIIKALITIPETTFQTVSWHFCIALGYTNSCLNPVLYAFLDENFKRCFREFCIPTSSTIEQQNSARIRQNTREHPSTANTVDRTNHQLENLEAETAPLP

| Structure (SMILES) | IC50 [1] [nM] | Ke, norBNI [2] [nM] | ED50 [3] [µg/kg] | ED (200% urine output) [4] [µg/kg] | ED (500% urine output) [4] [µg/kg] | ED50 [5] [µg/kg] | Protective action against cytotoxicity caused by glutamic acid (in words) [6] | EC50 [7] [nM] | No. of Residual Nerve Cells ([8]; 0.03 mg/kg) | No. of Residual Nerve Cells ([8]; 0.3 mg/kg) | No. of Residual Nerve Cells ([8]; 3 mg/kg) | Suppression of defluxion of brain nerve cells caused by ischemia / cerebro-neuroprotective activity (in words) [8] | Ke, Naloxone [9] [nM] | Ke, NTI [10] [nM] | receptor selectivity of agonist (κ) [2] | No. of Animals in which Coughing was Suppressed/No. of Animals Tested ([5]; 1 μg/kg) | No. of Animals in which Coughing was Suppressed/No. of Animals Tested ([5]; 3 μg/kg) | No. of Animals in which Coughing was Suppressed/No. of Animals Tested ([5]; 30 μg/kg) | receptor selectivity of agonist (δ) ([10]; in words) | Diuretic action (in words) ([4]; s.c., from ED200 values) |
| --- | --- | --- | --- | --- | --- | --- | --- | --- | --- | --- | --- | --- | --- | --- | --- | --- | --- | --- | --- | --- |
| CN(C(=O)/C=C/c1ccoc1)[C@@H]1CC[C@@]2(O)[C@H]3Cc4ccc(O)c5c4[C@@]2(CCN3CC2CC2)[C@H]1O5 [Compound 61, 17-cyclopropylmethyl-3,14β-dihydroxy-4,5α-epoxy-6β-[N-methyl-trans-3-(3-furyl)acrylamido]morphinan.cndot.tartrate] | 0.42 | 0.164 | 4.4 | 3.2 | 157 | 3.7 | clearly demonstrated action that protects nerve cells from cytotoxicity caused by glutamic acid | 16300 | – | – | – | – | – | – | – | – | – | – | – | – |
| CC(C)CN(C(=O)Cc1ccc(Cl)c(Cl)c1)[C@H]1CC[C@@]2(O)[C@H]3Cc4ccc(O)c5c4[C@@]2(CCN3CC2CC2)[C@H]1O5 [Compound 51, 17-cyclopropylmethyl-4,5α-epoxy-3,14β-dihydroxy-6α-(N-isobutyl-3,4-dichlorophenylacetoamido)morphinan.cndot.hydrochloride] | – | – | 190 | – | – | – | clearly demonstrated action that protects nerve cells from cytotoxicity caused by glutamic acid | 30 | 17.8 ± 6.9 | 46.4 ± 15.1 | 203.8 ± 40.1 | significantly suppress defluxion of brain nerve cells caused by ischemia | – | – | – | – | – | – | – | – |
| CN(C(=O)CCCCCc1ccccc1)[C@H]1CC[C@@]2(O)[C@H]3Cc4ccc(O)c5c4[C@@]2(CCN3CC2CC2)[C@H]1O5 [Compound 36, 17-cyclopropylmethyl-3,14β-dihydroxy-4,5α-epoxy-6α-(N-methyl-6-phenylhexanamido)morphinan.cndot.hydrochloride] | – | – | 230 | – | – | – | clearly demonstrated action that protects nerve cells from cytotoxicity caused by glutamic acid | 230 | 38.8 ± 19.6 | 85.5 ± 34.9 | 68.0 ± 45.3 | significantly suppress defluxion of brain nerve cells caused by ischemia | – | – | – | – | – | – | – | – |
| Cc1cccc(/C=C/C(=O)N(C)[C@@H]2CC[C@@]3(O)[C@H]4Cc5ccc(O)c6c5[C@@]3(CCN4CC3CC3)[C@H]2O6)c1 [Compound 69, 17-cyclopropylmethyl-3,14β-dihydroxy-4,5α-epoxy-6β-(N-methyl-3-methylcinnamamido)morphinan.cndot.hydrochloride] | 0.32 | 1.95 | 4.9 | – | – | 12.5 | – | – | 12.4 ± 3.0 | 43.3 ± 19.1 | 178.3 ± 30.4 | significantly suppress defluxion of brain nerve cells caused by ischemia | 1780 | 64.5 | selective agonists for κ receptors | 1/5 | 1/5 | 4/5 | – | – |
| CN(C(=O)/C=C/C1CCCCC1)[C@@H]1CC[C@@]2(O)[C@H]3Cc4ccc(O)c5c4[C@@]2(CCN3CC2CC2)[C@H]1O5 [Compound 68, 17-cyclopropylmethyl-3,14β-dihydroxy-4,5α-epoxy-6β-(N-methyl-3-cyclohexylacrylamido)morphinan.cndot.tartrate] | 0.457 | 1.08 | 4.2 | 1.6 | 23.2 | – | clearly demonstrated action that protects nerve cells from cytotoxicity caused by glutamic acid | 1410 | – | – | – | – | 5710 | 143 | selective agonists for κ receptors | – | – | – | – | – |
| CN(C(=O)/C=C/c1cccc([N+](=O)[O-])c1)[C@@H]1CC[C@@]2(O)[C@H]3Cc4ccc(O)c5c4[C@@]2(CCN3CC2CC2)[C@H]1O5 [Compound 104, 17-cyclopropylmethyl-3,14β-dihydroxy-4,5α-epoxy-6β-(N-methyl-3-nitrocinnamamido)morphinan.cndot.tartrate] | 0.227 | 1.40 | 17 | – | – | – | clearly demonstrated action that protects nerve cells from cytotoxicity caused by glutamic acid | 5450 | 12.0 ± 3.0 | 14.8 ± 1.2 | 106.2 ± 65.6 | significantly suppress defluxion of brain nerve cells caused by ischemia | 185 | 89 | selective agonists for κ receptors | – | – | – | – | – |
| CN(C(=O)/C=C/c1ccccc1)[C@H]1CC[C@@]2(O)[C@H]3Cc4ccc(O)c5c4[C@@]2(CCN3CC2CC2)[C@H]1O5 [Compound 24, 17-cyclopropylmethyl-3,14β-dihydroxy-4,5α-epoxy-6α-(N-methylcinnamamido)morphinan.cndot.hydrochloride] | 0.121 | 4.90 | 5.75 | 0.69 | 6.3 | – | clearly demonstrated action that protects nerve cells from cytotoxicity caused by glutamic acid | 1910 | – | – | – | – | 16.5 | 0.426 | – | – | – | – | selective agonists for δ receptors | extremely strong diuretic action |
